Data set [1] deals with lipid peroxidation in brain homogeneous substance. Description: Antioxidation activation test: lipid peroxidation assay (TBARS/MDA) in brain homogenate with FeCl2/ascorbic acid. Format: biochemical, SD rat. Particulars: for IC50: 50% inhibitory concentration of lipid peroxidation (TBARS at 520 nm), rat brain homogenate, FeCl2/ascorbic acid; for antioxidation activity increased compared with the prior antioxidation activator BHT: relative to BHT IC50 of Table 4. The protocol: After decapitating a SD rat (male, 10–12 weeks old) and rapidly extracting the brain, 10 mM Tris-HCl buffer solution (pH 7.4) containing 150 mM KCl is added to 10 ml/brain and homogenated. Then, the homogenated brain mixture is centrifuged for 10 minutes at 2,200 rpm, 4° C., and the upper layer is collected through protein assay. The exact amount of protein is measured and kept at −20° C.
250 μl of brain homogeneous substance (5 mg protein/ml), 10 μl of sample substance, 20 μl of buffer solution is divided at the 96-well micro plate one by one, and cultured for 20 minutes at 37° C. under a shaking condition. Then, 10 μl of 20 μM FeCl2 and 250 μM ascorbic acid is respectively added to the mixture and cultured for 30 minutes at 37° C. After completing the reaction by adding 50 μl of 35% HClO4 to the mixture, the micro plate is centrifuged for 10 minutes at 2,000 rpm, 4° C., and only the upper layer is transferred to the 96-well micro plate in an amount of 240 μl, and then, 120 μl of TBA (thiabarbituric acid; 5 mg/ml in 50% acetic acid) is added to the mixture. After reacting the micro plate for an hour at 80° C., it is cooled at room temperature, and the optical density of the thus obtained TBARS (thiobarbituric acid reactive substances, MDA) is measured at 520 nm.
The assay response curve of TBARS obtained using tetraethoxypropane, a reaction substance of TBA is used in calculating the amount of reaction product MDA of the sample substance, and the oxidation inhibition effect of the test drug is obtained by the following equation 1. Further, the 50% inhibitory concentration (IC50) is obtained using the dose response curve.
wherein, A is the concentration (nmol) of the control protein (MDA/mg), and
B is the concentration (nmol) of the experiment protein (MDA/mg).

`Cc1cc(C(C)(C)C)c(O)c(C(C)(C)C)c1` [BHT, tert-butyl-hydroxytoluene, reference compound] registered an IC50 in data set [1] of 2090 nM. This lies in the single-digit micromolar range. As to `CCCCOc1cc(/C=C/C(=O)NCCc2cc(C(C)(C)C)c(O)c(C(C)(C)C)c2)cc(OCCCC)c1O` [Example 1, 3-(3,5-dibutoxy-4-hydroxyphenyl)-N-[2-(3,5-di-t-butyl-4-hydroxyphenyl)ethyl]acrylamide], the melting point was 82 to 85 °C.

`CCC(CC)Oc1cc(/C=C/C(=O)NCc2cc(C(C)(C)C)c(O)c(C(C)(C)C)c2)cc(OC(CC)CC)c1O` [Example 4, 3-[3,5-bis-(1-ethylpropoxy)-4-hydroxyphenyl]-N-(3,5-di-t-butyl-4-hydroxybenzyl)acrylamide] registered a melting point of 75 to 80 °C. On to `CCCCCCOc1cc(/C=C/C(=O)Nc2ccccc2O)cc(OCCCCCC)c1O` [Example 6, 3-(3,5-bishexyloxy-4-hydroxyphenyl)-N-(2-hydroxyphenyl)acrylamide], for which the melting point fell in the range of 137 to 140 °C. For `CCCCCCCCCOc1cc(CN2CCN(CC(O)c3ccc(Cl)cc3)CC2)cc(OCCCCCCCCC)c1O` (stereo not shown) [Example 8, 4-{4-[2-(4-chlorophenyl)-2-hydroethyl]piperazine-1-ylmethyl}-2,6-bis-nonyloxyphenol], in data set [1], inhibition was half-maximal at 1530 nM (IC50) and the “antioxidation activity increased compared with the prior antioxidation activator BHT” value (from here on “antioxidation activity increased”) was 27%. With `CCCCCCOc1cc(C=CC(=O)N2CCN(CC(O)c3ccc(F)cc3)CC2)cc(OCCCCCC)c1O` (stereo not shown) [Example 12, 3-(3,5-bis-hexyloxy-4-hydroxyphenyl)-1-{4-[2-(4-fluorophenyl)-2-hydroxyethyl]piperazine-1-yl}propenone], in data set [1], it took 260 nM to reach half-maximal inhibition (IC50) and the “antioxidation activity increased” value is 88%. For `CCCCOc1cc(CCC(=O)N2CCN(CC(O)c3ccc(Cl)cc3)CC2)cc(OCCCC)c1O` (stereo not shown) [Example 15, 1-{4-[2-(4-chlorophenyl)-2-hydroxyethyl]piperazine-1-yl}-3-(3,5-dibutoxy-4-hydroxyphenyl)propane-1-one], in data set [1], the IC50 came out at 910 nM and the “antioxidation activity increased” value is recorded as 56%.

In data set [1], `CC(C)(C)c1cc(/C=C/C(=O)N2CCN(c3ccc(NC(=N)c4cccs4)cc3)CC2)cc(C(C)(C)C)c1O` [Example 16, N-(4-(4-[3-(3,5-di-t-butyl-4-hydroxy-phenyl)-acryloyl]-piperizine-lyl}-phenyl)-thiophene-2-carboxamidine] displayed an IC50 of 510 nM. Take `CCC(CC)Oc1cc(/C=C/C(=O)N2CCN(c3ccc(NC(=N)c4cccs4)cc3)CC2)cc(OC(CC)CC)c1O` [Example 17]: the melting point lay within 170 to 171 °C. This compound yielded an IC50 in data set [1] of 470 nM.

In turn, `CCCOc1cc(/C=C/C(=O)N2CCN(c3ccc(NC(=N)c4cccs4)cc3)CC2)cc(OCCC)c1O` [Example 18, N-(4-{4-[3-(4-hydroxy-3,5-dipropoxy-phenyl)-acryloyl]-piperazine-1-yl}-phenyl)-thiophene-2-carboxamidine] gave an IC50 in data set [1] of 490 nM. `CCCCOc1cc(/C=C/C(=O)N2CCN(c3ccc(NC(=N)c4cccs4)cc3)CC2)cc(OCCCC)c1O` [Example 19, N-(4-{4-[3-(3,5-dibutoxy-4-hydroxy-phenyl)-acryloyl]-piperazine-1-yl}-phenyl)-thiophene-2-carboxamidine] showed a melting point of 99 to 102 °C. Also, in data set [1], the “antioxidation activity increased” value was 82%. For `CC(C)(C)c1cc(/C=C/C(=O)N2CCN(c3ccc(NC(=N)c4ccc[nH]4)cc3)CC2)cc(C(C)(C)C)c1O` [Example 21, N-(4-{4-[3-(3,5-di-t-butyl-4-hydroxy-phenyl)-acryloyl]-piperazine-1-yl}-phenyl)-1H-pyrrole-2-carboxamidine], the melting point fell in the range of 149 to 167 °C. Take `CCCCOc1cc(/C=C/C(=O)N2CCN(c3ccc(NC(=N)c4ccc[nH]4)cc3)CC2)cc(OCCCC)c1O` [Example 22, N-(4-{4-[3-(3,5-dibutoxy-4-hydroxy-phenyl)-acryloyl]-piperazine-1-yl}-phenyl)-1H-pyrrole-2-carboxamidine]: in data set [1], the IC50 turned out to be 370 nM and the “antioxidation activity increased” value is listed as 82%. Consider `CCCCCOc1cc(/C=C/C(=O)N2CCN(c3ccc(NC(=N)c4ccc[nH]4)cc3)CC2)cc(OCCCCC)c1O` [Example 23, N-(4-{4-[3-(4-hydroxy-3,5-bis-penyloxy-phenyl)-acryloyl]-piperazine-1-yl}-phenyl)-1H-pyrrole-2-carboxamidine], for which the melting point fell in the range of 109 to 116 °C. In addition, in data set [1], the IC50 stood at 450 nM. `CCCCCCCOc1cc(/C=C/C(=O)N2CCN(c3ccc(NC(=N)c4ccc[nH]4)cc3)CC2)cc(OCCCCCCC)c1O` [Example 24, N-(4-{4-[3-(3,5-bis-heptyloxy-4-hydroxy-phenyl)-acryloyl]-piperazine-1-yl}-phenyl)-1H-pyrrole-2-carboxamidine] returned a melting point of 100 to 145 °C.

The values above are taken from patent US7078407B2, “4-hydroxycinnamamide derivatives as antioxidants and pharmaceutical compositions containing them” (Korea Research Institute of Chemical Technology, priority 2001, dated 2006).
